Source: patent publication US8598122B2, “Antagonistic peptides for frizzled-1 and frizzled-2” (Universiteit Maastricht, priority 2009, dated 2013)
“Also recorded” adds a separate entry of the source. Where a SMILES comes first, the peptide text is derived from it.

Tests used:
frizzled-1 (rFzd-1) = molecular target: T1, frizzled-1 (rFzd-1) (Rattus norvegicus, UniProt Q08463); test: Activity assay: Wnt3a-induced luciferase (superTOPflash) in HEK cells transfected with frizzled-1; type: cell-based; conditions: peptide 1.10^−8 M
T1 construct: expressed in transfected cells; host or cells: HEK293 superTOPflash (human embryonic kidney), transient, pcDNA3.1/hygro
Method: (§1) Human embryonic kidney (HEK) cells were used for screening. These cells have a luciferase construct stably transfected into the genome (see FIG. 2A), such that when the frizzled receptor is activated and β-catenin is increased, the luciferase is activated by transcription and light can be measured.
(§2) The peptides were tested by transfecting the frizzled-1 or the frizzled-2 receptor and addition of UM206(S-S) to the cell culture. For testing antagonistic activity, UM206 was added and the natural ligand Wnt3a was added, which is a natural stimulus for the canonical pathway.
(§3) Day 2: Transfection 12-well plates • heat Fugene6 and DNA 15 minutes at RT • 2 ml serum-free medium in tube • add 3μl fugene • add 2 μg DNA • incubate 30 minutes at RT • wash with PBS • add 50 μtransfectiemix • add 1 ml antibiotica-free medium
(§4) Day 3: Add conditioned medium or UM206
(§5) Day 4: Luciferase activity measurements • remove medium • wash with PBS • add 500 μl ⅕ lysisbuffer • shake for 60 minutes • centrifuge in tube • 20 μl lysaat and 50 μl luciferase in new tube for measurement • vortex • measure
(§6) To determine the inhibitory constant of UM206-8, HEK293-superTOPflash cells were transfected with either rFzd-1 or -2 and incubated with Wnt3a (10^−9M) in the presence of increasing concentrations of either of the peptides (FIG. 15). For UM206, a biphasic inhibition curve was observed that was best fitted with a two-binding-state model.
(§7) The cell lines were cultured in 75 cm^2 culture flasks (Corning, Schiphol, the Netherlands) in Dulbeco's modified essential medium with L-glutamine (2 mM), 10% fetal calf serum (Invitrogen, Merelbeke, Belgium), and 1% gentamycin (Sigma-Aldrich, Zwijndrecht, The Netherlands). Before starting the experiment, the cell lines were treated with plasmocin 25 μg/ml (Invivogen, Toulose, France) and tested with a mycoalert mycoplasma detection kit (Lonza, Rockland Me., USA). Cells were transiently transfected with Fugene6 (Roche, Indianapolis Ind., USA) with plasmid DNA, pcDNA3.1/hygro (Invitrogen) with frizzled-1/2/4 or Wnts 3a-5a or with pcDNA3.0 (Invitrogen) containing the β-catenin or frizzled-5 sequence. After transfection, the cells were cultured for 24 hours in conditioned medium, collected from the cultured L-cells, L-cells with Wnt3a or 5a (Invitrogen). At the same moment the antagonist was added.

frizzled-2 (rFzd-2) = molecular target: T2, frizzled-2 (rFzd-2) (Rattus norvegicus, UniProt Q08464); test: Activity assay: Wnt3a-induced luciferase (superTOPflash) in HEK cells transfected with frizzled-2; type: cell-based
T2 construct: expressed in transfected cells; host or cells: HEK293 superTOPflash (human embryonic kidney), transient, pcDNA3.1/hygro
Method: as §1, §2, §3, §4, §5, §6, §7

hFzd-4 = molecular target: T3, hFzd-4 (Homo sapiens, UniProt Q9ULV1); test: Luciferase activity in HEK293 superTOPflash cells overexpressing hFzd-4; type: cell-based; conditions: 1.10^−8 M
T3 construct: expressed in transfected cells; host or cells: HEK293 superTOPflash, transient, pcDNA3.1/hygro
T3 sequence (Q9ULV1 37-537): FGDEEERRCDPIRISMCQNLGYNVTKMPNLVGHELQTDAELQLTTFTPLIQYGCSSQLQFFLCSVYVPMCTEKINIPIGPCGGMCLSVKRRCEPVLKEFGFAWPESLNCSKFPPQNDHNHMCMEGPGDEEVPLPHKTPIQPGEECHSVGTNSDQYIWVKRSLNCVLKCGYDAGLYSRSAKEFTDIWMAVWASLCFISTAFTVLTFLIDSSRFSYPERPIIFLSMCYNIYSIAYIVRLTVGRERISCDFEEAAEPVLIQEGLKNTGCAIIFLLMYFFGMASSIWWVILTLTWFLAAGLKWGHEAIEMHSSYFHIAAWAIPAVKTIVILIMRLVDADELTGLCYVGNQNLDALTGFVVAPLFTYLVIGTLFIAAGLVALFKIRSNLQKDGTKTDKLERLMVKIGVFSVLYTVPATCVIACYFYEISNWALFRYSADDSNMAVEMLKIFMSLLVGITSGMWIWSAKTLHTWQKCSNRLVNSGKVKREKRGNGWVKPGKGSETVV
Method: (§8) In FIG. 3, Panel E, the efficacy of UM206 to block the Wnt3a-induced activation of luciferase activity in HEK293 superTOPflash cells transfected with different Fzds is shown.
as §7

mouse Fzd-2 = molecular target: T4, mouse Fzd-2 (Mus musculus, UniProt Q9JIP6); test: Antagonism of Wnt3a activation of mouse Fzd-2 (data not shown); type: cell-based
T4 construct: expressed in transfected cells
From the text: as §8

human Fzd-1 = molecular target: T5, human Fzd-1 (Homo sapiens, UniProt Q9UP38); test: Antagonism of Wnt3a activation of human Fzd-1 (data not shown); type: cell-based
T5 construct: expressed in transfected cells
From the text: as §8

frizzled receptor = test: Activity on the frizzled receptor (activity assay of Example 1), result in words; type: cell-based
Method: as §1, §2
Analogues of UM206 were prepared by solid phase peptide synthesis. Each amino acid residue was sequentially replaced by an alanine residue and antagonistic activity of the analogue was tested as described in the activity assay of Example 1. […] Titles indicate which amino acid residue was substituted by an alanine residue.

C-FIT cells = test: Differentiation assay (α-SMA) with C-FIT cells; type: cell-based, rat
From the text: For this assay, we used the same C-FIT cells as for the migration assay to study a second component of wound healing, namely, differentiation of fibroblasts into myofibroblasts. When wound healing starts, cells called fibroblasts migrate into the scar. These cells have no contractile properties; however, they can differentiate into myofibroblasts, which can actively contract. To study which signals influence the transition from fibroblast into myofibroblasts, we treated the C-FIT cells and harvested them for mRNA isolation. Next, we tested them for the presence of specific markers for myofibroblasts by reverse transcription of the mRNA and subsequent quantitative PCR analysis, which are absent in fibroblasts. One of those markers is α-smooth muscle actin, which makes the cells contract.
(§9) RNA was isolated using the Trizol method (Invitrogen). For the RT-PCR, the RNA was transcribed to cDNA with iscript™ cDNA synthesis kit (Bio-Rad, Hercules Calif., USA), Syber green (Eurogentec, Ghent, Belgium) was used for the detection of cDNA levels and cyclophilin served as the house keeping gene. In Supplementary methods panel 5, the primer sequences are shown.

kidney = test: qPCR of Wnt target genes in kidney after long-term UM206 administration; type: in vivo, mice; set-up: key to Rel. exp. Col I / Rel. exp. DDK 2 / Rel. exp. DDK 3 / Rel. exp. Twist: expression normalized to cyclophilin housekeeping gene; key to Rel. exp. α-SMA / Rel. exp. DDK 1 / Rel. exp. α-actin / Rel. exp. LEF / Rel. exp. FN: relative expression, cyclophilin as housekeeping gene
From the text: as §9

T2 sequence (Q08464 29-570): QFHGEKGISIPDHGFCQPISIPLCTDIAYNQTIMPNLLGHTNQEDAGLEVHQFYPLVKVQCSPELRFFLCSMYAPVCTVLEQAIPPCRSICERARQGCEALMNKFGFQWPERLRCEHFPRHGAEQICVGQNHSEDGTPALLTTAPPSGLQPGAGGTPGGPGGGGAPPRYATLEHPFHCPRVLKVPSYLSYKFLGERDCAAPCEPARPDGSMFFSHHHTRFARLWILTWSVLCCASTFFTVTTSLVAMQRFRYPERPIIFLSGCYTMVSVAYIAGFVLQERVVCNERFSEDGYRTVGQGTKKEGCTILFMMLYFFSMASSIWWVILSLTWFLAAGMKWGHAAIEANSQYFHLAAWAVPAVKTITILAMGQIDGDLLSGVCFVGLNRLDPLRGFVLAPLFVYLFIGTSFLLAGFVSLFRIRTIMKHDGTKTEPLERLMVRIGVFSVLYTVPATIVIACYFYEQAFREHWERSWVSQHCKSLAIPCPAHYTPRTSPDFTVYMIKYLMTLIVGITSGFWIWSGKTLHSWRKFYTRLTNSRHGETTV
T1 sequence (Q08463 69-641): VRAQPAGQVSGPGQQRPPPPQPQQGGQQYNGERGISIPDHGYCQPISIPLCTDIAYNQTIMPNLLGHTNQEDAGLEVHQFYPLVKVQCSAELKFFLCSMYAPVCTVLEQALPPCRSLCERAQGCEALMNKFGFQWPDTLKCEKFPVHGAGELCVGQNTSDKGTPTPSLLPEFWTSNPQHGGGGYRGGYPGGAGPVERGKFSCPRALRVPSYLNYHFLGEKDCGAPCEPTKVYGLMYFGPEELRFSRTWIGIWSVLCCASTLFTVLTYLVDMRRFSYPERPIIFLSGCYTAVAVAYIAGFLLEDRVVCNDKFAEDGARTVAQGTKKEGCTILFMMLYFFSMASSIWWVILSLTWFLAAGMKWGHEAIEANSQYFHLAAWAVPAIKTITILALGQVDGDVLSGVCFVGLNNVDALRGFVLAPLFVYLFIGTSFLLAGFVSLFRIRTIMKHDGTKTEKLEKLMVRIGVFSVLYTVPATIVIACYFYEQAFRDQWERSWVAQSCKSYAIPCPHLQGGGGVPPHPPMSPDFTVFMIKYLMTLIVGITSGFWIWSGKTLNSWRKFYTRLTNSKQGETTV
T4 sequence (Q9JIP6 29-570): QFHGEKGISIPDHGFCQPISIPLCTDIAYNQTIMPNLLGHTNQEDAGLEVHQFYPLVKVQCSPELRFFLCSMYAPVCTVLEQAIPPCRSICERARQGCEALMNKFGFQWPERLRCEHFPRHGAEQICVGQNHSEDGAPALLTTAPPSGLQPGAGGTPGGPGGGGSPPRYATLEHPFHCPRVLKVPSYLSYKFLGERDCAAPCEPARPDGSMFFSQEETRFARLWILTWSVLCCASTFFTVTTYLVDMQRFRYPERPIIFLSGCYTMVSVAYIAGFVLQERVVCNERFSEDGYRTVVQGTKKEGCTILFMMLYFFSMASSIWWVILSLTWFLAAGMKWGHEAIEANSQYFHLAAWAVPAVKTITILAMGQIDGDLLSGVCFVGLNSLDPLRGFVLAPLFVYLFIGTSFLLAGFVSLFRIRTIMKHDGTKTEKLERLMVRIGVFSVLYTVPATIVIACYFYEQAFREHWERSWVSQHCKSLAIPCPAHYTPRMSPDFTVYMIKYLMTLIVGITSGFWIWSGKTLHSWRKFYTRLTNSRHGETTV
T5 sequence (Q9UP38 70-647): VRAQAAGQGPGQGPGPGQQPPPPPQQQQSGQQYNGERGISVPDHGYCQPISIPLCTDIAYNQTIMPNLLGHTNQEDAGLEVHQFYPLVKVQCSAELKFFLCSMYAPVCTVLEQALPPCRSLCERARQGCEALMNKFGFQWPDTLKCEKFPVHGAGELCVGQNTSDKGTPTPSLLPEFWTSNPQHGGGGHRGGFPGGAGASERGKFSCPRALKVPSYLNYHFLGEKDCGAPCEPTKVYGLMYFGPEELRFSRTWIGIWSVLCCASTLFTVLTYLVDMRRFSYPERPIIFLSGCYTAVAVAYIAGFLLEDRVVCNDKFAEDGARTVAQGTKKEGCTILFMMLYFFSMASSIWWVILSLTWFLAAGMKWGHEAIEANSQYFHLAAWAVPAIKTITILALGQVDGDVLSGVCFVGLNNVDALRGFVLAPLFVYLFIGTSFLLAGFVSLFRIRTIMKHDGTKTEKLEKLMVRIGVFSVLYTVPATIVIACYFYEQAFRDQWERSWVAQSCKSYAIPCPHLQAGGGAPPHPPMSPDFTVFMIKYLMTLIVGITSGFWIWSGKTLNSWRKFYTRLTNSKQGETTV

With CSCC[C@H](NC(=O)CNC(=O)[C@H](CCC(=O)O)NC(=O)[C@H](CO)NC(=O)[C@@H](NC(=O)[C@H](CCCCN)NC(=O)[C@H](CC(N)=O)NC(=O)[C@H](CS)NC(C)=O)[C@@H](C)O)C(=O)N[C@@H](CC(=O)O)C(=O)NCC(=O)N[C@@H](CS)C(=O)N[C@@H](CCC(=O)O)C(=O)N[C@@H](CC(C)C)C(N)=O [UM206, Ac-Cys-Asn-Lys-Thr-Ser-Glu-Gly-Met-Asp-Gly-Cys-Glu-Leu-NH2] (Ac-CNKTSEGMDGCEL-NH2) the “Blocking of Wnt3a-induced luciferase activity, rFzd-1” value (frizzled-1 (rFzd-1)) was “blocked almost completely; also recorded: abolished the induction of luciferase activity almost completely”, the “Higher affinity for rFzd-2 than for rFzd-1” value (frizzled-2 (rFzd-2)) was ~100 fold and the “Selectivity frizzled-2 over frizzled-1” value (frizzled-2 (rFzd-2)) was “slightly more selective for frizzled-2 over frizzled-1”. The “Blocking of Wnt3a-induced luciferase activity, frizzled-2” value (frizzled-2 (rFzd-2); increasing amounts of antagonist) was “completely and concentration-dependently blocked”, the “Blocking of Wnt3a-induced luciferase activity, rFzd-2” value (frizzled-2 (rFzd-2); peptide 1.10^−8 M) was “blocked almost completely; also recorded: abolished the induction of luciferase activity almost completely” and the “Effect of the antagonist on its own on luciferase activity” value (frizzled-2 (rFzd-2); without Wnt3a) was “no effect”. The “Effect on Wnt3a-induced luciferase activity, frizzled-4” value (hFzd-4) was “no effect”, the “Antagonizing activation of mouse Fzd-2 by Wnt3a” value (mouse Fzd-2) was “fully effective” and the “Antagonizing activation of human Fzd-1 by Wnt3a” value (human Fzd-1) was “fully effective”. For the same molecule, the “Activity on the frizzled receptor (in words)” value (frizzled receptor) was “very potent antagonist”, the “IC50 (range in words)” value (frizzled receptor) was “in the nanomolar range” and the “Effect on Wnt3a/5a-induced differentiation (α-SMA levels)” value (C-FIT cells) was “completely blocks this differentiation”. The “influence on gene expression in the kidney” value (kidney; UM206 for five weeks) was “These data indicate that UM206 had no influence on gene expression in the kidney”, the “Rel. exp. Col I” value (kidney; kidney) was 1.39 and the “Rel. exp. DDK 1” value (kidney; kidney) was 1.87. The “Rel. exp. DDK 2” value (kidney; kidney) was 1.44, the “Rel. exp. DDK 3” value (kidney; kidney) was 0.87 and the “Rel. exp. FN” value (kidney; kidney) was 1.66. For the same molecule, the “Rel. exp. LEF” value (kidney; kidney) was 1.70, the “Rel. exp. Twist” value (kidney; kidney) was 1.49 and the “Rel. exp. α-SMA” value (kidney; kidney) was 1.21. For the same molecule, the “Rel. exp. α-actin” value (kidney; kidney) was 1.06.
